Read-outs that look alike come from different tables or passages of the source.

The target of assay [1] is T1, PRMT5 (Homo sapiens, UniProt O14744).
T1 construct: purchased Viva (custom protein)
Briefly: PRMT5 biochemical IC50 assay with MTA as cofactor. To be noted: PRMT5, MTA as cofactor; read-out: MTA IC50.

Assay [2] addresses T1, PRMT5. Description: PRMT5 biochemical IC50 assay with no cofactor. The conditions noted are these: PRMT5, no cofactor; read-out: No Cofactor/ rel IC50. From the text: Table 1 indicates IC50 values (μM) against PRMT5 for exemplary compounds in the presence of SAM as cofactor, with no cofactor, and with MTA as cofactor, respectively (columns 4-6). […] Ki values can be calculated from the IC50 values as described in the Examples section. As detailed in the Examples section, for the assay performed in the presence of SAM, IC50=Ki×1.5 (Ki=IC50/1.5).

The subject of assay [3] is HAP1 MTAP-intact cell line. Description: SDMA in-cell western assay, HAP1 MTAP-intact. Type of assay: cell-based. The conditions noted are these: HAP1 MTAP-intact, read-out: MTAP HAP1 intact IC50. The procedure, abridged: (§1)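 IC50 values come from SDMA signal quantified by in-cell western in two HAP1 lines, one with native MTAP levels and one lacking MTAP.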
Assay [4] concerns HAP1 MTAP-deleted cell line. Briefly: Viability assay, MTAP-deleted cell line. The conditions noted are these: MTAP-deleted cell line, read-out: HAP1 MTAP deleted viability. The format is cell-based. The text has this:
Table 1 additionally indicates IC50 values in a viability assay for the MTAP-deleted cell line (column 10), indicating the effect of treatment with compound on cell survival.

Assay [5] relates to HAP1 MTAP-deleted cell line. Briefly: SDMA in-cell western assay, HAP1 MTAP-deleted. The format is cell-based. The conditions noted are these: for MTAP intact/deleted ratio: IC50 ratio HAP1 MTAP-intact / HAP1 MTAP-deleted; for IC50: HAP1 MTAP-deleted, read-out: HAP 1 MTAP deleted IC50. The procedure, abridged:
as §1

The target in assay [6] is T1, PRMT5. Briefly: PRMT5 biochemical IC50 assay with SAM as cofactor. To be noted: PRMT5, SAM as cofactor; read-out: SAM IC50.
[7] abbreviates: Homo sapiens, HAP1, SDMA in-cell western.
Where [8] appears, read: Homo sapiens, HAP1, viability assay.

T1 sequence (O14744 whole entry): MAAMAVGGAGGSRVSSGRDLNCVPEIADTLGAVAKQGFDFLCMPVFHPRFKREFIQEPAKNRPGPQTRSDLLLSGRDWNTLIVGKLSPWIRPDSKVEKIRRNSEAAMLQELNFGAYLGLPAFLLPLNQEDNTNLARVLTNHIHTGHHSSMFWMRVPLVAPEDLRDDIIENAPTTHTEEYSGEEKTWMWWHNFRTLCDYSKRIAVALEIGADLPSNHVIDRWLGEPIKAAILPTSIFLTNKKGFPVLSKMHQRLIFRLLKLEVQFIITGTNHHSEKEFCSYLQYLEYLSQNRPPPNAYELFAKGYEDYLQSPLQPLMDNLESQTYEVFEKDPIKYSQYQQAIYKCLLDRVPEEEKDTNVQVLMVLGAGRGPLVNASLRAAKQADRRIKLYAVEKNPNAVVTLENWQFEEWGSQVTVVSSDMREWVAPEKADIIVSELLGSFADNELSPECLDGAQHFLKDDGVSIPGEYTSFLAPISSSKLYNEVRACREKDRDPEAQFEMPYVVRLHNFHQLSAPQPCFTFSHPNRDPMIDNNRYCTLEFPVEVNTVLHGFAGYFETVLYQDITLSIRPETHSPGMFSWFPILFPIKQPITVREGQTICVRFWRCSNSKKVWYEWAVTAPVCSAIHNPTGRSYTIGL
T1 sequence (Q9BQA1 whole entry partner): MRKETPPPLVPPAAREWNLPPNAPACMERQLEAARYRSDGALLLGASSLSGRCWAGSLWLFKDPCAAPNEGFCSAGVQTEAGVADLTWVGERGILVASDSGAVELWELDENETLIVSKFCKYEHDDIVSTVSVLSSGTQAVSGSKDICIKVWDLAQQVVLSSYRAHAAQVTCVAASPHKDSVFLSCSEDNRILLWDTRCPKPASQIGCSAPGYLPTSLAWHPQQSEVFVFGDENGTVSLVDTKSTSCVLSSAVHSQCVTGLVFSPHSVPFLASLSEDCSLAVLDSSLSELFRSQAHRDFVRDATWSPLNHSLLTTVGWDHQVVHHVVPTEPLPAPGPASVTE

Consider `CC(=O)N1CCC(c2cccc(C3CCCCN3C(=O)C(=O)Nc3cncc(C)c3)c2)CC1` (single isomer, unassigned) [Compound 78], for which the IC50 is 50 to 500 nM in assay [1]; greater than 500 nM in assay [2]; greater than 1000 nM in assay [3] (SDMA in-cell western); greater than 10000 nM in assay [4] (viability assay); greater than 1000 nM in assay [5] (SDMA in-cell western); greater than 500 nM in assay [6]. Besides, in assay [5] (SDMA in-cell western), the “MTAP intact/deleted ratio” value is “C (an IC50 ratio of less than 3 fold)”.

Consider `NC(=O)c1cncc(NC(=O)C(=O)N2CCCC[C@@H]2c2ccccc2)c1` (single isomer, unassigned) [Compound 85], for which the IC50 was less than 50 nM in assay [1]; 50 to 500 nM in assay [2]; greater than 1000 nM in assay [3] (setting [7]); greater than 10000 nM in assay [4] (setting [8]); 100 to 1000 nM in assay [5] (setting [7]); 50 to 500 nM in assay [6]. The “MTAP intact/deleted ratio” value in assay [5] (SDMA in-cell western) is recorded as “A (an IC50 ratio greater than or equal to 10 fold)”.

As to `Cc1cncc(NC(=O)C(=O)N2C[C@@H](C)CC[C@@H]2c2cccc(Cl)c2)c1` (single isomer, unassigned) [Compound 87], the IC50 in assay [1] was 50 to 500 nM; in assay [2] it was 50 to 500 nM; in assay [3] (setting [7]) it was greater than 1000 nM; in assay [4] (setting [8]), greater than 10000 nM; in assay [5] (setting [7]), greater than 1000 nM; in assay [6], 50 to 500 nM. For the same compound, the “MTAP intact/deleted ratio” value in assay [5] (SDMA in-cell western) is “C (an IC50 ratio of less than 3 fold)”.

As to `Cc1cncc(NC(=O)C(=O)N2C[C@H](C)CC[C@H]2c2cccc(Cl)c2)c1` (single isomer, unassigned) [Compound 90], the IC50 in assay [1] was greater than 500 nM; in assay [2] it was greater than 500 nM; in assay [3] (setting [7]), greater than 1000 nM; in assay [4] (setting [8]), greater than 10000 nM; in assay [5] (setting [7]) it was greater than 1000 nM; in assay [6], greater than 500 nM. The “MTAP intact/deleted ratio” value in assay [5] (SDMA in-cell western) was “C (an IC50 ratio of less than 3 fold)”.

In the case of `Cc1cncc(NC(=O)C(=O)N2C[C@H](C)CCC2c2cccc(F)c2)c1` (single isomer, unassigned) [Compound 93], the IC50 in assay [1] is 50 to 500 nM; in assay [2], greater than 500 nM; in assay [3] (setting [7]), greater than 1000 nM; in assay [4] (setting [8]), greater than 10000 nM; in assay [5] (setting [7]), greater than 1000 nM; in assay [6], 50 to 500 nM. The “MTAP intact/deleted ratio” value in assay [5] (SDMA in-cell western) is on record as “C (an IC50 ratio of less than 3 fold)”.

On to `CC(=O)N1CCC(c2cccc(C3CCCCN3C(=O)C(=O)Nc3cnc(N)c(C)c3)c2)CC1` (single isomer, unassigned) [Compound 94], for which the IC50 in assay [1] is less than 50 nM; in assay [2], 50 to 500 nM; in assay [3] (SDMA in-cell western), 100 to 1000 nM; in assay [4] (viability assay), 1000 to 10000 nM; in assay [5] (setting [7]) it was less than 100 nM; in assay [6] it was 50 to 500 nM. Further, the “MTAP intact/deleted ratio” value in assay [5] (SDMA in-cell western) was “B (an IC50 ratio greater than or equal to 3 fold but lower than 10 fold)”.

As to `CC(=O)N1CCC(c2cccc(C3CCCCN3C(=O)C(=O)Nc3cnc(N)c(C)c3)c2)CC1` (single isomer, unassigned) [Compound 96], the IC50 in assay [1] was less than 50 nM; in assay [2] it was 50 to 500 nM; in assay [3] (SDMA in-cell western) it was greater than 1000 nM; in assay [4] (viability assay), greater than 10000 nM; in assay [5] (SDMA in-cell western), 100 to 1000 nM; in assay [6], 50 to 500 nM. Besides, in assay [5] (SDMA in-cell western), the “MTAP intact/deleted ratio” value is on record as “A (an IC50 ratio greater than or equal to 10 fold)”.

Take `NC(=O)c1cncc(NC(=O)C(=O)N2CCCC[C@H]2c2ccccc2)c1` (single isomer, unassigned) [Compound 97]: the IC50 in assay [1] is 50 to 500 nM; in assay [2], greater than 500 nM; in assay [3] (setting [7]), greater than 1000 nM; in assay [4] (setting [8]), greater than 10000 nM; in assay [5] (setting [7]), greater than 1000 nM; in assay [6], greater than 500 nM. For the same compound, the “MTAP intact/deleted ratio” value in assay [5] (SDMA in-cell western) was “C (an IC50 ratio of less than 3 fold)”.

Regarding `C[C@H]1CC[C@@H](c2cccnc2)N(C(=O)C(=O)Nc2cncc(C(N)=O)c2)C1` (single isomer, unassigned) [Compound 104], the IC50 was 50 to 500 nM in assay [1]; greater than 500 nM in assay [2]; greater than 1000 nM in assay [3] (setting [7]); greater than 10000 nM in assay [4] (setting [8]); greater than 1000 nM in assay [5] (setting [7]); 50 to 500 nM in assay [6]. Besides, the “MTAP intact/deleted ratio” value in assay [5] (SDMA in-cell western) is recorded as “B (an IC50 ratio greater than or equal to 3 fold but lower than 10 fold)”.

For `C[C@H]1CC[C@H](c2cccnc2)N(C(=O)C(=O)Nc2cncc(C(N)=O)c2)C1` (single isomer, unassigned) [Compound 105], the IC50 was greater than 500 nM in assay [1]; greater than 500 nM in assay [2]; greater than 1000 nM in assay [3] (setting [7]); greater than 10000 nM in assay [4] (setting [8]); greater than 1000 nM in assay [5] (setting [7]); greater than 500 nM in assay [6]. Further, in assay [5] (SDMA in-cell western), the “MTAP intact/deleted ratio” value is given as “C (an IC50 ratio of less than 3 fold)”.

`C[C@@H]1CC[C@@H](c2cccnc2)N(C(=O)C(=O)Nc2cncc(C(N)=O)c2)C1` (single isomer, unassigned) [Compound 106]: the IC50 in assay [1] was less than 50 nM; in assay [2], 50 to 500 nM; in assay [3] (setting [7]), greater than 1000 nM; in assay [4] (setting [8]), 1000 to 10000 nM; in assay [5] (setting [7]), less than 100 nM; in assay [6], less than 50 nM. In assay [5] (SDMA in-cell western), the “MTAP intact/deleted ratio” value is given as “A (an IC50 ratio greater than or equal to 10 fold)”.

On to `NC(=O)c1cncc(NC(=O)C(=O)N2CCCCC2C2CCCCC2)c1` (single isomer, unassigned) [Compound 108, 5-(2-(2-cyclohexylpiperidin-1-yl)-2-oxoacetamido)nicotinamide], for which the IC50 in assay [1] is greater than 500 nM; in assay [2], greater than 500 nM; in assay [3] (setting [7]), greater than 1000 nM; in assay [4] (viability assay), greater than 10000 nM; in assay [5] (SDMA in-cell western) it was greater than 1000 nM; in assay [6], greater than 500 nM. In addition, the “MTAP intact/deleted ratio” value in assay [5] (SDMA in-cell western) is on record as “C (an IC50 ratio of less than 3 fold)”.

Take `NC(=O)c1cncc(NC(=O)C(=O)N2CCCCC2C2CCCCC2)c1` (single isomer, unassigned) [Compound 113, 5-(2-(2-cyclohexylpiperidin-1-yl)-2-oxoacetamido)nicotinamide]: the IC50 was less than 50 nM in assay [1]; 50 to 500 nM in assay [2]; greater than 1000 nM in assay [3] (SDMA in-cell western); 1000 to 10000 nM in assay [4] (viability assay); less than 100 nM in assay [5] (SDMA in-cell western); 50 to 500 nM in assay [6]. In addition, the “MTAP intact/deleted ratio” value in assay [5] (SDMA in-cell western) is on record as “A (an IC50 ratio greater than or equal to 10 fold)”.

`Cc1cc(NC(=O)C(=O)N2C[C@H](C)CC[C@H]2c2cccs2)cnc1N` (single isomer, unassigned) [Compound 115]: the IC50 was less than 50 nM in assay [1]; less than 50 nM in assay [2]; 100 to 1000 nM in assay [3] (setting [7]); less than 1000 nM in assay [4] (setting [8]); less than 100 nM in assay [5] (setting [7]); 50 to 500 nM in assay [6]. Further, the “MTAP intact/deleted ratio” value in assay [5] (SDMA in-cell western) is given as “A (an IC50 ratio greater than or equal to 10 fold)”.

As for `C[C@H]1CC[C@H](C2CCCCC2)N(C(=O)C(=O)Nc2cncc(C(N)=O)c2)C1` (single isomer, unassigned) [Compound 117], the IC50 was 50 to 500 nM in assay [1]; greater than 500 nM in assay [2]; greater than 1000 nM in assay [3] (setting [7]); greater than 10000 nM in assay [4] (setting [8]); 100 to 1000 nM in assay [5] (setting [7]); greater than 500 nM in assay [6]. Moreover, in assay [5] (SDMA in-cell western), the “MTAP intact/deleted ratio” value is reported as “A (an IC50 ratio greater than or equal to 10 fold)”.

For `C[C@H]1CC[C@@H](C2CCCCC2)N(C(=O)C(=O)Nc2cncc(C(N)=O)c2)C1` (single isomer, unassigned) [Compound 121], the IC50 is less than 50 nM in assay [1]; 50 to 500 nM in assay [2]; greater than 1000 nM in assay [3] (setting [7]); 1000 to 10000 nM in assay [4] (setting [8]); less than 100 nM in assay [5] (setting [7]); 50 to 500 nM in assay [6]. Further, the “MTAP intact/deleted ratio” value in assay [5] (SDMA in-cell western) was “A (an IC50 ratio greater than or equal to 10 fold)”.

Regarding `Cc1cc(NC(=O)C(=O)N2C[C@H]3CC[C@H](C3)[C@H]2c2cccs2)cnc1N` (single isomer, unassigned) [Compound 134], the IC50 in assay [1] was greater than 500 nM; in assay [2], greater than 500 nM; in assay [3] (setting [7]), greater than 1000 nM; in assay [4] (setting [8]), greater than 10000 nM; in assay [5] (setting [7]), greater than 1000 nM; in assay [6] it was greater than 500 nM. The “MTAP intact/deleted ratio” value in assay [5] (SDMA in-cell western) is “C (an IC50 ratio of less than 3 fold)”.

With `Cc1cc(NC(=O)C(=O)N2C[C@@H]3CC[C@@H](C3)[C@@H]2c2cccs2)cnc1N` (single isomer, unassigned) [Compound 137], the IC50 in assay [1] was less than 50 nM; in assay [2], 50 to 500 nM; in assay [3] (setting [7]), greater than 1000 nM; in assay [4] (setting [8]), greater than 10000 nM; in assay [5] (setting [7]), less than 100 nM; in assay [6], 50 to 500 nM. In assay [5] (SDMA in-cell western), the “MTAP intact/deleted ratio” value is “A (an IC50 ratio greater than or equal to 10 fold)”.

The values are drawn from patent US11999727B2 (Tango Therapeutics, Inc., priority 2020, dated 2024).
